According to ChEMBL document CHEMBL4673372, “1,2,3-triazole-thiazole hybrids: Synthesis, in vitro antimicrobial activity and antibiofilm studies” (Bioorg Med Chem Lett, 2021):
Converted amounts (≈) assume the structure as drawn.

What was measured:
[1] = Selectivity index, ratio of CC50 for human THP-1 cells to MIC for Staphylococcus aureus MTCC 96; assay type: toxicity
[2] = Cytotoxicity against human THP-1 cells; assay type: cell-based
[3] = test system: THP-1; experiment: Cytotoxicity against human THP-1 cells assessed as cell damage at 200 uM by LDH assay; assay type: cell-based; conditions: thp-1, 200 µM
[4] = test system: THP-1; experiment: Cytotoxicity against human THP-1 cells assessed as reduction in cell viability at 200 uM by MTT assay; assay type: cell-based; conditions: thp-1, 200 µM
[5] = test system: Pseudomonas aeruginosa; experiment: Bactericidal activity against Pseudomonas aeruginosa MTCC 2453; assay type: functional
[6] = test system: Micrococcus luteus; experiment: Bactericidal activity against Micrococcus luteus MTCC 2470; assay type: functional
[7] = test system: Bacillus subtilis; experiment: Bactericidal activity against Bacillus subtilis MTCC 121; assay type: functional
[8] = test system: Pseudomonas aeruginosa; experiment: Antibacterial activity against Pseudomonas aeruginosa MTCC 2453 assessed as inhibition of bacterial growth by microtiter broth dilution method; assay type: functional
[9] = test system: Escherichia coli; experiment: Antibacterial activity against Escherichia coli MTCC 739 assessed as inhibition of bacterial growth by microtiter broth dilution method; assay type: functional
[10] = test system: Raoultella planticola; experiment: Antibacterial activity against Klebsiella planticola MTCC 530 assessed as inhibition of bacterial growth by microtiter broth dilution method; assay type: functional
[11] = test system: Micrococcus luteus; experiment: Antibacterial activity against Micrococcus luteus MTCC 2470 assessed as inhibition of bacterial growth by microtiter broth dilution method; assay type: functional
[12] = test system: Bacillus subtilis; experiment: Antibacterial activity against Bacillus subtilis MTCC 121 assessed as inhibition of bacterial growth by microtiter broth dilution method; assay type: functional
[13] = test system: Staphylococcus aureus; experiment: Antibacterial activity against Staphylococcus aureus MLS16 MTCC 2940 assessed as inhibition of bacterial growth by microtiter broth dilution method; assay type: functional
[14] = test system: Staphylococcus aureus; experiment: Antibacterial activity against Staphylococcus aureus MTCC 96 assessed as inhibition of bacterial growth by microtiter broth dilution method; assay type: functional
[15] = test system: Candida albicans; experiment: Inhibition of biofilm formation in Candida albicans MTCC 3017 incubated for 24 hrs by crystal violet staining based microtiter plate method; assay type: functional, organism-based
[16] = test system: Pseudomonas aeruginosa; experiment: Inhibition of biofilm formation in Pseudomonas aeruginosa MTCC 2453 incubated for 24 hrs by crystal violet staining based microtiter plate method; assay type: functional, organism-based
[17] = test system: Escherichia coli; experiment: Inhibition of biofilm formation in Escherichia coli MTCC 739 incubated for 24 hrs by crystal violet staining based microtiter plate method; assay type: functional, organism-based
[18] = test system: Raoultella planticola; experiment: Inhibition of biofilm formation in Klebsiella planticola MTCC 530 incubated for 24 hrs by crystal violet staining based microtiter plate method; assay type: functional, organism-based
[19] = test system: Micrococcus luteus; experiment: Inhibition of biofilm formation in Micrococcus luteus MTCC 2470 incubated for 24 hrs by crystal violet staining based microtiter plate method; assay type: functional, organism-based
[20] = test system: Bacillus subtilis; experiment: Inhibition of biofilm formation in Bacillus subtilis MTCC 121 incubated for 24 hrs by crystal violet staining based microtiter plate method; assay type: functional, organism-based
[21] = test system: Staphylococcus aureus; experiment: Inhibition of biofilm formation in Staphylococcus aureus MLS16 MTCC 2940 incubated for 24 hrs by crystal violet staining based microtiter plate method; assay type: functional, organism-based
[22] = test system: Staphylococcus aureus; experiment: Inhibition of biofilm formation in Staphylococcus aureus […] incubated for 24 hrs by crystal violet staining based microtiter plate method; assay type: functional, organism-based
[23] = test system: Staphylococcus aureus; experiment: Bactericidal activity against Staphylococcus aureus MTCC 96; assay type: functional
[24] = test system: Raoultella planticola; experiment: Bactericidal activity against Klebsiella planticola MTCC 530; assay type: functional

Row | Compound | selectivity ratio [1] | CC50 [2] [µM] | Activity [3] | Activity [4] | MBC [7] [µM] | MIC [8] [µM] | MIC [9] [µM] | MIC [10] [µM] | MIC [11] [µM] | MIC [12] [µM] | MIC [13] [µM] | MIC [14] [µM] | IC50 [15] | IC50 [16] | IC50 [17] | IC50 [19] | IC50 [21] | MBC [23] [µM] | also measured
1 | COc1ccc(-n2cc(COc3ccc(/C=N/Nc4nc(-c5ccc(Br)cc5)cs4)cc3)nn2)cc1 | 0.16 | 35.6 | Toxic | Toxic | 55.5 (≈ 31.2 µg/mL) | 27.7 (≈ 15.6 µg/mL) | > 223 | > 223 | 13.8 (≈ 7.75 µg/mL) | 13.8 (≈ 7.75 µg/mL) | > 223 | > 223 |  |  |  |  |  |  | MBC [5]: 111 µM (≈ 62.4 µg/mL); MBC [6]: 27.7 µM (≈ 15.6 µg/mL)
2 | COc1ccc(-n2cc(COc3ccc(/C=N/Nc4nc(-c5ccc(F)cc5)cs4)cc3)nn2)cc1 |  |  |  |  |  | > 223 | > 223 | > 223 | > 223 | > 223 | > 223 | > 223 |  |  |  |  |  |  | 
3 | COc1ccc(-n2cc(COc3ccc(/C=N/Nc4nc(-c5cc6cc(Cl)cc(Cl)c6oc5=O)cs4)cc3)nn2)cc1 |  |  |  |  |  | > 202 | > 202 | > 202 | > 202 | > 202 | > 202 | > 202 | Not Active | Not Active | Not Active | Not Active | Not Active |  | IC50 [18]: Not Active; IC50 [20]: Not Active; IC50 [22]: Not Active
4 | CCOc1cc(Br)cc2cc(-c3csc(N/N=C/c4ccc(OCc5cn(-c6ccc(OC)cc6)nn5)cc4)n3)c(=O)oc12 |  |  |  |  |  | > 186 | > 186 | > 186 | > 186 | > 186 | > 186 | > 186 | Not Active | Not Active | Not Active | Not Active | Not Active |  | IC50 [18]: Not Active; IC50 [20]: Not Active; IC50 [22]: Not Active
5 | COc1ccc(-n2cc(COc3ccc(/C=N/Nc4nc(-c5ccc(C)cc5)cs4)cc3)nn2)cc1 | 2.57 | 40.3 | Toxic | Toxic |  | > 252 | > 252 | > 252 | > 252 | > 252 | > 252 | 15.7 (≈ 7.8 µg/mL) |  |  |  |  |  | 31.4 (≈ 15.6 µg/mL) | 
6 | COc1ccc(-n2cc(COc3ccc(/C=N/Nc4nc(-c5ccc([N+](=O)[O-])cc5)cs4)cc3)nn2)cc1 | 2.58 | 37.9 | Toxic | Toxic | 29.5 (≈ 15.6 µg/mL) | 14.7 (≈ 7.76 µg/mL) | > 237 | > 237 | 14.7 (≈ 7.76 µg/mL) | 14.7 (≈ 7.76 µg/mL) | > 237 | 14.7 (≈ 7.76 µg/mL) |  |  |  |  |  | 29.5 (≈ 15.6 µg/mL) | MBC [5]: 59.1 µM (≈ 31.2 µg/mL); MBC [6]: 29.5 µM (≈ 15.6 µg/mL)
7 | COc1ccc(-n2cc(COc3ccc(/C=N/Nc4nc(-c5cc6cccc(Br)c6oc5=O)cs4)cc3)nn2)cc1 |  |  |  |  | 12.3 (≈ 7.74 µg/mL) | > 199 | > 199 | 6.1 (≈ 3.84 µg/mL) | > 199 | 6.1 (≈ 3.84 µg/mL) | > 199 | 6.1 (≈ 3.84 µg/mL) | Not Active | Not Active | Not Active | Not Active | Not Active | 12.3 (≈ 7.74 µg/mL) | IC50 ([18]; Klebsiella planticola, MTCC 530, 24 h, read-out: IC50): 42.3 µM; IC50 ([20]; Bacillus subtilis, MTCC 121, 24 h, read-out: IC50): 35.4 µM; IC50 ([22]; Staphylococcus aureus, MTCC 92, 24 h, read-out: IC50): 32.6 µM; MBC [24]: 12.3 µM (≈ 7.74 µg/mL)
